Data published in US20260209234A1, “SUBSTITUTED DIHYDROPYRROLO[3,4-D]PYRIMIDINE COMPOUNDS AND THEIR USE IN TREATING MEDICAL CONDITIONS” (Karuna Therapeutics, Inc., priority 2022, published 2026).
pEC50: −log10 of the molar value.

Target: T1, human M4 receptor (Homo sapiens, UniProt P08173)
T1 construct: expressed in transfected cells
T1 sequence (P08173 1-479): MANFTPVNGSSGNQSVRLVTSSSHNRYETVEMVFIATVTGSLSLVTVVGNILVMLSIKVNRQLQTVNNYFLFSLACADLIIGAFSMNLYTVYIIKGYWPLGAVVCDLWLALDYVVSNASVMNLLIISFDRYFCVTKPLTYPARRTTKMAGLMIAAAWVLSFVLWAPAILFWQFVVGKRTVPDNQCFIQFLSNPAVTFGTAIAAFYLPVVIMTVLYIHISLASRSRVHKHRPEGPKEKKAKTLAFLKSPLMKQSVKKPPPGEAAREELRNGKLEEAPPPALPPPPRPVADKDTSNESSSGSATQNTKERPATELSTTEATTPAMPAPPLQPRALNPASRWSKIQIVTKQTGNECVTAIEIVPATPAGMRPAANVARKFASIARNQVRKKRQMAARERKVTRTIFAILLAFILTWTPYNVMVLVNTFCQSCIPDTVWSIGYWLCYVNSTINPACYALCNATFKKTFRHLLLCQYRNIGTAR
Assay: M4 GTPγS PAM assay
Assay type: biochemical
Conditions: membranes of CHO-K1 cells stably expressing human M4; EC20 acetylcholine 40 nM; 35S-GTP
Summary of the method: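 CHO-K1 membranes stably expressing human M4, preincubated with compound and 0.1 μM GDP (final) in 20 mM HEPES, 10 mM MgCl2, 100 mM NaCl, pH 7.4, then EC20 acetylcholine (40 nM final). 35S-GTPγS binding 1 h at room temperature, filtration and scintillation counting.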

| pEC50 | SMILES |
| --- | --- |
| ≥ 7.00 | COc1nc(C#N)nc2c1C(C)N(C(=O)CC1CN(c3ccnc(C(F)(F)F)c3)C1)C2 (single isomer, unassigned) [Compound I-6, 4-Methoxy-5-methyl-6-(2-(1-(2-(trifluoromethyl)pyridin-4-yl)azetidin-3-yl)acetyl)-6,7-dihydro-5H-pyrrolo[3,4-d]pyrimidine-2-carbonitrile] |
| ≥ 7.00 | COc1nc(C)nc2c1C(C)N(C(=O)CC1CN(c3ccnc(C(F)(F)F)c3)C1)C2 (single isomer, unassigned) [Compound I-52, 1-(4-Methoxy-2,5-dimethyl-5,7-dihydro-6H-pyrrolo[3,4-d]pyrimidin-6-yl)-2-(1-(2-(trifluoromethyl)pyridin-4-yl)azetidin-3-yl)ethan-1-one] |
